From ChEMBL document CHEMBL5331093, “Identification of "dual-site"-binding diarylpyrimidines targeting both NNIBP and the NNRTI adjacent site of the HIV-1 reverse transcriptase” (Eur J Med Chem, 2023) come the findings set out here.

≈ marks a conversion by molar mass, not a printed value.

A word on the EC50: it is the concentration at which the effect is half-maximal. One may read the IC50 as the midpoint of a concentration-inhibition curve. The CC50 is the concentration giving 50% cytotoxicity. By solubility is commonly meant how much of the substance goes into solution per volume.

Series [1] concerns Human immunodeficiency virus 1. In words: Anti-HIV activity against NNRTI-resistant HIV-1 harboring RT K103N mutant infected in human MT4 cells assessed as inhibition of virus-induced cytopathic effect incubated for 5 days by MTT assay. Format: functional, organism-based. The settings on record: Human immunodeficiency virus 1, MT4, 120 h. (In general: Damage to the host cells serves as the signal in cytopathic effect assays.)

Series [2] has as its system Human immunodeficiency virus 1. Nature of the series: Anti-HIV activity against NNRTI-resistant HIV-1 harboring RT L100I mutant infected in human MT4 cells assessed as inhibition of virus-induced cytopathic effect incubated for 5 days by MTT assay. Format: functional, organism-based. The settings on record: Human immunodeficiency virus 1, MT4, 120 h.
In series [3] the test system is Human immunodeficiency virus 1. Nature of the series: Anti-HIV activity against NNRTI-resistant HIV-1 RES056 harboring RT K103N/Y181C double mutant infected in human MT4 cells assessed as inhibition of virus-induced cytopathic effect incubated for 5 days by MTT assay. Format: functional, organism-based. The settings on record: Human immunodeficiency virus 1, RES056, MT4, 120 h.

Series [4] concerns Human immunodeficiency virus 1. In words: Anti-HIV activity against NNRTI-resistant HIV-1 harboring RT E138K mutant infected in human MT4 cells assessed as inhibition of virus-induced cytopathic effect incubated for 5 days by MTT assay. It counts as functional, organism-based. The note with it: Human immunodeficiency virus 1, MT4, 120 h.
Series [5] can be described thus: Selectivity index, ratio of CC50 cytotoxicity against human MT4 cells to EC50 for anti-HIV activity against NNRTI-resistant HIV-1 RES056 harboring RT K103N/Y181C double mutant infected in human MT4 cells. Format: toxicity, cell-based. The settings on record: read-out: Ratio CC50/EC50.
Series [6] concerns Human immunodeficiency virus 1. In words: Anti-HIV activity against NNRTI-resistant HIV-1 harboring RT F227L/V106A double mutant infected in human MT4 cells assessed as inhibition of virus-induced cytopathic effect incubated for 5 days by MTT assay. It counts as functional, organism-based. The note with it: Human immunodeficiency virus 1, MT4, 120 h.
Series [7] deals with Human immunodeficiency virus 1. Nature of the series: Anti-HIV activity against NNRTI-resistant HIV-1 harboring RT Y181C mutant infected in human MT4 cells assessed as inhibition of virus-induced cytopathic effect incubated for 5 days by MTT assay. It counts as functional, organism-based. The note with it: Human immunodeficiency virus 1, MT4, 120 h.
In series [8] the test system is Human immunodeficiency virus 1. Nature of the series: Anti-HIV activity against NNRTI-resistant HIV-1 harboring RT Y188L mutant infected in human MT4 cells assessed as inhibition of virus-induced cytopathic effect incubated for 5 days by MTT assay. Format: functional, organism-based. The settings on record: Human immunodeficiency virus 1, MT4, 120 h.
Series [9] in a line: Selectivity index, ratio of CC50 cytotoxicity against human MT4 cells to EC50 for anti-HIV activity against wild type HIV-1 IIIB infected in human MT4 cells. Format: toxicity, cell-based. The settings on record: read-out: Ratio CC50/EC50.
A short description of series [10]: Resistance factor, ratio of EC50 for anti-HIV activity against NNRTI-resistant HIV-1 RES056 harboring RT K103N/Y181C double mutant infected in human MT4 cells to EC50 for anti-HIV activity against wild type HIV-1 IIIB infected in human MT4 cells. It counts as functional.
The test system of series [11] is Human immunodeficiency virus 1. In words: Anti-HIV activity against wild type HIV-1 IIIB infected in human MT4 cells assessed as inhibition of virus-induced cytopathic effect incubated for 5 days by MTT assay. Format: functional, organism-based. The note with it: Human immunodeficiency virus 1, IIIB, MT4, 120 h.
For series [12], the target named is Human immunodeficiency virus type 1 reverse transcriptase (Human immunodeficiency virus 1, UniProt Q72547). Nature of the series: Inhibition of wild type recombinant HIV-1 reverse transcriptase assessed as reduction of biotin-dUTP incorporation into […] using ABTS as substrate incubated for 1 hrs by ELISA analysis. (In general: An ELISA detects its analyte on a solid surface through an enzyme-linked reagent.)

Series [13] in a line: Cytotoxicity against human MT4 cells assessed as reduction in cell viability incubated for 5 days by MTT assay. It counts as toxicity, cell-based. The note with it: time 5 day. For orientation: Tetrazolium dyes change colour on reduction, which living cells bring about.
The nature of series [14]: Aqueous solubility of the compound at pH 7.4. Format: physicochemical. The note with it: aqueous medium.
Series [15] in a line: Aqueous solubility of the compound at pH 2.0. Format: physicochemical. The note with it: aqueous medium.
Series [16] can be described thus: Aqueous solubility of the compound at pH 7.0. Format: physicochemical. The note with it: aqueous medium.

Turning to `Cc1cc(C#N)cc(C)c1Oc1nc(Nc2ccc(C#N)cc2)ncc1SCC(=O)NCCCN1CCOCC1`, the EC50 is 2.78 nM in series [1]; 25.8 nM in series [2]; 386 nM in series [3]; 38.1 nM in series [4]; 231 nM in series [6]; 30.9 nM in [7]. Besides, the EC50 came out at 94.6 nM in series [8] and 3.41 nM in series [11]. For the same molecule, the selectivity ratio in [5] was determined as 61; in [9] it was 6930. Further, in [10], the “Ratio EC50” value is given as 113. For the same molecule, the IC50 in series [12] worked out at 113 nM.
`C#CCNC(=O)/C=C/c1cnc(Nc2ccc(C#N)cc2)nc1Oc1c(C)cc(C#N)cc1C`: the selectivity ratio came to 109 in series [5] and 27100 in series [9]. Besides, the “Ratio EC50” value in series [10] is reported as 248.
As for `Cc1cc(C#N)cc(C)c1Oc1nc(Nc2ccc(C#N)cc2)ncc1C#CC(=O)NCCCN1CCOCC1`, the results for the EC50 in series [3] and in [11] were 3440 nM and 12.9 nM, respectively. Besides, the results for the selectivity ratio in [5] and in series [9] were 17 and 4600, respectively. Further, the “Ratio EC50” value in [10] was determined as 268. In addition, the CC50 at 120 h in series [13] is 59200 nM.
On to `Cc1cc(C#N)cc(C)c1Oc1nc(Nc2ccc(C#N)cc2)ncc1C#CC(=O)NCCOCCO`, for which the EC50 amounted to 818 nM in series [3] and 10.5 nM in [11]. In addition, the selectivity ratio is 11 in series [5] and 890 in [9]. For the same molecule, the “Ratio EC50” value in [10] was 78. Besides, the CC50 at 120 h in series [13] is 9380 nM.
Turning to `C#CCNC(=O)C#Cc1cnc(Nc2ccc(C#N)cc2)nc1Oc1c(C)cc(C#N)cc1C`, the EC50 came to 15.2 nM in series [1]; 125 nM in [2]; 814 nM in series [3]; 27.2 nM in series [4]; 452 nM in [6]; 87.2 nM in series [7]. Moreover, the EC50 is 155 nM in [8] and 6.15 nM in series [11]. Also, the results for the selectivity ratio in series [5] and in [9] were 9 and 1140, respectively. Moreover, the “Ratio EC50” value in [10] was found to be 132. Further, in [13], the CC50 at 120 h worked out at 7020 nM.
Turning to `COC(=O)C1CCC(NC(=O)C#Cc2cnc(Nc3ccc(C#N)cc3)nc2Oc2c(C)cc(C#N)cc2C)CC1` (centres undefined), the EC50 in series [1] stood at 20.4 nM; in [2] it was 131 nM; in series [3] it was 664 nM; in [4], 26.9 nM; in series [6] it was 3210 nM; in series [7], 101 nM. Moreover, the figures for the EC50 in series [8] and in [11] were 171 nM and 6.38 nM, respectively. Moreover, the selectivity ratio is 17 in [5] and 1800 in series [9]. Also, the “Ratio EC50” value in series [10] was determined as 104. For the same molecule, in series [12], the IC50 worked out at 185 nM. In addition, in series [13], the CC50 at 120 h was determined as 11500 nM.
As to `COCCNC(=O)C#Cc1cnc(Nc2ccc(C#N)cc2)nc1Oc1c(C)cc(C#N)cc1C`, the solubility in [14] is 7.84 µg/mL (≈ 16.8 µM); in series [15], 22.8 µg/mL (≈ 48.9 µM); in series [16] it was 8.27 µg/mL (≈ 17.7 µM). Besides, the EC50 was determined as 2.36 nM in series [1]; 6.06 nM in series [2]; 35.7 nM in [3]; 6.27 nM in series [4]; 61.1 nM in [6]; 9.6 nM in series [7]. The values for the EC50 in series [8] and in [11] were 14.3 nM and 2.04 nM, respectively. The selectivity ratio in [5] came to 379; in series [9], 6650. Also, the “Ratio EC50” value in series [10] amounted to 18. For the same molecule, the IC50 in [12] turned out to be 19 nM. Moreover, the CC50 at 120 h in [13] is 13600 nM.
Consider `Cc1cc(C#N)cc(C)c1Oc1nc(Nc2ccc(C#N)cc2)ncc1C#CC(=O)NCCN1CCOCC1`, for which the figures for the selectivity ratio in [5] and in series [9] were greater than 2 and greater than 2000, respectively. Also, in series [10], the “Ratio EC50” value was determined as 957. Besides, the EC50 in [11] amounted to 120 nM. Also, in [13], the CC50 at 120 h is greater than 240000 nM.
As to `Cc1cc(C#N)cc(C)c1Oc1nc(Nc2ccc(C#N)cc2)ncc1C#CC(=O)NCCN1CCN(S(C)(=O)=O)CC1`, the EC50 in series [3] was found to be 774 nM; in series [11], 11.1 nM. Also, the selectivity ratio in [9] was determined as 440. In addition, the “Ratio EC50” value in series [10] is 70. In addition, in [13], the CC50 at 120 h turned out to be 4890 nM.
On to `CCOC(=O)C#Cc1cnc(Nc2ccc(C#N)cc2)nc1Oc1c(C)cc(C#N)cc1C`, for which the EC50 in series [1] was determined as 5.2 nM; in [2] it was 10.9 nM; in series [3] it was 133 nM; in series [4] it was 9.72 nM; in series [6], 15.9 nM; in series [7], 13.6 nM. Further, the EC50 in series [8] was 10.3 nM; in [11], 4.35 nM. The selectivity ratio in series [5] is 260; in series [9], 7940. Also, the “Ratio EC50” value in [10] was 31. For the same molecule, the IC50 in [12] is 102 nM. Besides, in series [13], the CC50 at 120 h came out at 34500 nM.
For the molecule `Cc1cc(C#N)cc(C)c1Oc1nc(Nc2ccc(C#N)cc2)ncc1C#CC(=O)NCCN1CCN(C(=O)OC(C)(C)C)CC1`, the results for the EC50 in [3] and in [11] were 4010 nM and 18.3 nM, respectively. The selectivity ratio in [5] is 6; in series [9], 1220. Also, the “Ratio EC50” value in [10] stood at 219. The CC50 at 120 h in series [13] was found to be 22400 nM.
Regarding `Cc1cc(C#N)cc(C)c1Oc1nc(Nc2ccc(C#N)cc2)ncc1C#CC(=O)NC1CC1`, the EC50 stood at 13.3 nM in series [1]; 111 nM in series [2]; 313 nM in series [3]; 14.9 nM in [4]; 376 nM in series [6]; 36.9 nM in series [7]. Also, the EC50 worked out at 236 nM in series [8] and 4.78 nM in series [11]. The selectivity ratio was found to be 17 in [5] and 1110 in series [9]. The “Ratio EC50” value in series [10] is reported as 66. In addition, the IC50 in series [12] was 52 nM. Also, the CC50 at 120 h in series [13] is 5300 nM.
Take `O=C1Nc2ccc(Cl)cc2[C@@](C#CC2CC2)(C(F)(F)F)O1` [EFAVIRENZ]: the EC50 in [2] was found to be 33.4 nM; in [3], 136 nM; in series [4], 3.52 nM; in series [6], 154 nM; in series [7], 4.78 nM; in series [8] it was 199 nM. For the same molecule, the EC50 in [11] amounted to 2.36 nM. Besides, the CC50 at 120 h in series [13] is greater than 6340 nM.
For `Cc1cc(C#N)cc(C)c1Oc1nc(Nc2ccc(C#N)cc2)nc(N)c1Br` [ETRAVIRINE], the EC50 was 2.78 nM in [1]; 5.72 nM in series [2]; 23.4 nM in [3]; 5.32 nM in series [4]; 16.8 nM in series [6]. Moreover, the CC50 at 120 h in [13] was greater than 4590 nM.
